According to patent US20140329863A1 (priority 2011, published 2014):
Values after ≈ are worked out from the molar mass of the structure shown. Like-named read-outs stand apart in the source and are kept apart here.

Key:
[1] = system: PrP^Sc in dividing ScN2a-cl3 cells; format: cell-based, mouse
[2] = Multidose (three-day) pharmacokinetics in liquid diet in FVB mice; details: FVB, mouse, in vivo, 100 mg/kg/day, Brain concentrations, 3 days, FVB mice
Binding in mouse plasma = details: 1 μM; mean ± SD, n = 3 (warfarin n = 2)
[3] = Toleration studies in mice
[4] = Hepatic microsomal stability, mouse; details: for half-life at 1 μM: CD-1, mouse, pH 7.4
[5] = Single-dose pharmacokinetics in FVB mice (oral gavage, IV); details: female, FVB, mouse, po, 10 mg/kg
[6] = Hepatic microsomal stability, rat
[7] = system: PrP^Sc in nondividing ScN2a-c13 cells; format: cell-based, mouse
[8] = Fraction unbound in cell-culture media; format: in vitro ADME; details: 1 μM; mean ± SD, n = 3
[9] = Tolerability / toxicity on repeated dosing in mice
prion-infected mice = details: literature reports; cited from earlier work
Binding in human plasma = details: 1 μM; mean ± SD, n = 3 (warfarin n = 2)
[10] = Hepatic microsomal stability, human; details: for half-life at 1 μM: human, pH 7.4
Media solubility = format: physicochemical; details: cell media
Protocol: To evaluate media solubility, two protocols were followed. In the first, solutions were prepared as described above. After overnight equilibration, samples were centrifuged for 30 min, without filtration, and supernatant analyzed by HPLC/UV/VIS with reference to three standards (5, 100, 250 μM). In the second protocol, turbidimetric analysis, dilutions of the compound of interest were prepared in media with target concentrations of 5, 10, 20, 50, 100, 200 and 300 μM. Media without solute was included for background. These solutions were evaluated using a light scattering technique and a Nepheloskan instrument.

PrP^C in IMR32 cells [11] = format: cell-based, human
[12] = system: PrP^Sc in dividing ScN2a-c13 cells
PrP^C in T98G cells [13] = format: cell-based, human
IMR32 cells = format: cell-based, human
PrP^C in IMR32 cells [14] = format: cell-based, human; remark: listed apart in the source
T98G cells = experiment: cells; format: cell-based, human; details: calcein, T98G cells
PrP^C in T98G cells [15] = format: cell-based, human; remark: listed apart in the source
[16] = system: PrP^Sc in dividing ScN2a-cl3 cells; details: previously demonstrated; cited from earlier work
[17] = system: PrP^Sc in nondividing ScN2a-cl3 cells; details: previously demonstrated; cited from earlier work

With `C(=N\Nc1ccc(-c2cnco2)cc1)/c1ccncc1` [Compound B, (E)-5-(4-(2-(pyridin-4-ylmethylene)hydrazinyl)phenyl)oxazole, reference compound] the EC50 ([1]; Table 29, 2-AMT analogs tested for potency, usually n = 3 or more) was 246 nM, the EC50 ([1]; read-out: EC50, PrP^Sc ELISA in dividing ScN2a-c13 cells) was 400 nM and the concentration at 3 days [2] was roughly 10 µM. For the same molecule, the “Unbound (%), Mouse Plasma” value (Binding in mouse plasma) was 9.06 ± 2.31%, the Toleration ([3]; 25, 50, 100, and 150 mg/kg for 3 days in liquid rodent diet, FVB mice) was “All doses were tolerated, with no animals showing lethal toxicity” and the animals dying ([3]; ≧150 mg/kg/day for 8 days) was 2/4. The half-life at 1 μM ([4]; mouse liver microsomes) was 30 min, the “Hepatic Extraction Ratio Mouse” value ([4]; mouse) was 0.8 and the “% remaining after a 60-min incubation, Mouse” value ([4]; mouse liver microsomes) was 29%. For the same molecule, the Kp ([5]; brain and plasma) was 0.5, the bioavailability ([5]; plasma) was 25 to 27% and the half-life at 1 μM ([6]; Sprague-Dawley, rat, […], pH 7.4) was greater than 60 min. For the same molecule, the “% remaining after a 60-min incubation, Rat” value ([6]; […]) was 77%, the “activity on PrP^Sc in nondividing cells (in words)” value [7] was “inactive” and the “Unbound (%), Cell-culture Media” value [8] was 36.5 ± 3.30%. The “dose with lethal toxicity” value ([9]; administered chronically in vivo for eight days) was greater than 110 mg/kg/day, the “dose with lethal toxicity” value ([9]; administered in vivo) was no less than 150 mg/kg/day and the tolerated dose ([9]; at least eight days) was “up to 100 mg/kg/day”. For the same molecule, the “brain concentration as multiple of EC50” value ([9]; doses up to 100 mg/kg/day for at least eight days) was greater than 10 ×EC50, the “effect in prion-infected mice” value (prion-infected mice) was “extended the incubation times” and the “Unbound (%), Human Plasma” value (Binding in human plasma) was 2.10 ± 1.11%. For the same molecule, the “% remaining after a 60-min incubation, Human” value ([10]; human liver microsomes) was 68% and the half-life at 1 μM ([10]; human liver microsomes) was greater than 60 min.

Molecule `COc1ccc(Nc2nc(-c3ccc(OC)c(OC)c3)cs2)nc1` [IND44, [4-(3,4-Dimethoxy-phenyl)-thiazol-2-yl]-(5-methoxy-pyridin-2-yl)-amine] has a solubility (physchem; FaSSIF) of less than 1 µM, a solubility (physchem; cell culture media, plasma or biological fluid) of 3 µM (≈ 1.03 µg/mL) and a solubility (physchem; pH 2 (HCl) buffer, pH 2, simulated gastric fluid) of 1 µM (≈ 0.343 µg/mL). For the same molecule, the solubility (physchem; pH 7.4 (phosphate) buffer, pH 7.4, aqueous buffer) was less than 1 µM, the half-life at 1 μM ([4]; liver microsomes) was 29 min and the half-life at 1 μM ([4]; mouse liver microsomes) was 29 min. The “% remaining after a 60-min incubation, Mouse” value ([4]; mouse liver microsomes) was 24%, the “t1/2 in min, Rat” value ([6]; […]) was 45 min and the “% remaining after a 60-min incubation, Rat” value ([6]; […]) was 39%. The “t1/2 Rat” value ([6]; rat microsomes) was 45 min, the “solubility in FaSSIF (in words)” value (fasted-state simulated intestinal fluid) was “lower solubility” and the “solubility at pH 2.0 (in words)” value (pH 2 (HCl) buffer) was “lower solubility”. For the same molecule, the “solubility at pH 7.4 (in words)” value (pH 7.4 phosphate buffer) was “lower solubility”, the “% remaining after a 60-min incubation, Human” value ([10]; human liver microsomes) was 48% and the half-life at 1 μM ([10]; human liver microsomes) was 58 min. For the same molecule, the half-life at 1 μM ([10]; liver microsomes) was 58 min and the “solubility in media (in words)” value (Media solubility) was “lower solubility”.

With `O=C(O)c1cccc2c1NC(C(=O)O)C1CC=CC21` (stereo not shown) [IND-0001270, 3a, 4,5,9b-tetrahydro-3H cyclopenta[c]quinoline-4,6-dicarboxylic acid] the “activity on PrP^C (in words)” value (PrP^C in IMR32 cells [11]; IMR32 cells) was “active”, the “antiprion activity (in words)” value ([12]; dividing ScN2a-c13 cells) was “active” and the “activity on PrP^Sc in nondividing cells (in words)” value [7] was “active”. For the same molecule, the “activity on PrP^C (in words)” value (PrP^C in T98G cells [13]) was “active”.

In the case of `O=C(Cc1ccc(Br)cc1)NCc1ccccc1` [IND-0061769], the EC50 (PrP^C in IMR32 cells [11]; read-out: EC50, PrP^C, IMR32 cells) is reported as 2050 nM, the “% Inhibition: Calcein (IMR32)” value (IMR32 cells) is reported as 21% and the “% Inhibition: SPC (IMR32)” value (PrP^C in IMR32 cells [14]) is reported as “MW: 304.2 % Inhibition: SPC (IMR32): 46 Calcein: 21 SPC (T98G): 63 Calcein: 38”. The “% Inhibition: Calcein (T98G)” value (T98G cells) was 38%, the “% Inhibition: SPC (T98G)” value (PrP^C in T98G cells [15]) was “MW: 304.2 % Inhibition: SPC (IMR32): 46 Calcein: 21 SPC (T98G): 63 Calcein: 38” and the EC50 (PrP^C in T98G cells [13]; read-out: EC50, PrP^C) was 1840 nM.

In the case of `CCN(CC)CCCC(C)Nc1c2ccc(Cl)cc2nc2ccc(OC)cc12` (stereo not shown) [quinacrine], the “PrP^C levels, HTS of FDA-approved drugs” value (PrP^C in IMR32 cells [11]) is listed as “lowered”, the “PrP^Sc levels, HTS of FDA-approved drugs” value ([12]; HTS of 1,700 FDA-approved drugs) is listed as “lowered” and the “Clearance of PrP^Sc in dividing cells” value [16] is listed as “rapidly clears dividing cells of PrP^Sc”. The “Clearance of PrP^Sc in nondividing prion-infected cells” value [17] was “relatively ineffective” and the “effect in prion-infected mice” value (prion-infected mice) was “ineffective”.
